Test results published in the supplement of paper PMC11451515.

Test system: NOMO1
Experiment: cell viability relative to DMSO control; higher = less cytotoxic
Conditions: 48 h
Method in brief: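 Cells were incubated for 48 h at 37°C before CellTiter-Glo One luminescence was read. The cells were NOMO1 or SEM (500 cells/well) or P12-Ichikawa (1000 cells/well) leukemia cells, adapted for at least four passages in each medium and seeded in 1536-well plates (5 μl). Dosing used library compounds in DMSO applied by pin over 11 threefold points, 47 μM to 0.79 nM. Viability is the per-plate percentage of DMSO wells, with cell-free wells as background.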

[1] = HPLM + 10% dialyzed FBS, 0.000781 µM
[2] = HPLM + 10% dialyzed FBS, 0.00234 µM
[3] = HPLM + 10% dialyzed FBS, 0.00702 µM
[4] = HPLM + 10% dialyzed FBS, 0.0211 µM
[5] = HPLM + 10% dialyzed FBS, 0.0632 µM
[6] = HPLM + 10% dialyzed FBS, 0.19 µM
[7] = HPLM + 10% dialyzed FBS, 0.569 µM
[8] = HPLM + 10% dialyzed FBS, 1.71 µM
[9] = HPLM + 10% dialyzed FBS, 5.12 µM
[10] = HPLM + 10% dialyzed FBS, 15.4 µM
[11] = HPLM + 10% dialyzed FBS, 46.1 µM
[12] = RPMI 5 mM glucose + 10% FBS, 0.000781 µM
[13] = RPMI 5 mM glucose + 10% FBS, 0.00234 µM
[14] = RPMI 5 mM glucose + 10% FBS, 0.00702 µM
[15] = RPMI 5 mM glucose + 10% FBS, 0.0211 µM
[16] = RPMI 5 mM glucose + 10% FBS, 0.0632 µM
[17] = RPMI 5 mM glucose + 10% FBS, 0.19 µM
[18] = RPMI 5 mM glucose + 10% FBS, 0.569 µM
[19] = RPMI 5 mM glucose + 10% FBS, 1.71 µM
[20] = RPMI 5 mM glucose + 10% FBS, 5.12 µM
[21] = RPMI 5 mM glucose + 10% FBS, 15.4 µM
[22] = RPMI 5 mM glucose + 10% FBS, 46.1 µM
[23] = RPMI 5 mM glucose + 10% dialyzed FBS, 0.000781 µM
[24] = RPMI 5 mM glucose + 10% dialyzed FBS, 0.00234 µM
[25] = RPMI 5 mM glucose + 10% dialyzed FBS, 0.00702 µM
[26] = RPMI 5 mM glucose + 10% dialyzed FBS, 0.0211 µM
[27] = RPMI 5 mM glucose + 10% dialyzed FBS, 0.0632 µM
[28] = RPMI 5 mM glucose + 10% dialyzed FBS, 0.19 µM
[29] = RPMI 5 mM glucose + 10% dialyzed FBS, 0.569 µM
[30] = RPMI 5 mM glucose + 10% dialyzed FBS, 1.71 µM
[31] = RPMI 5 mM glucose + 10% dialyzed FBS, 5.12 µM
[32] = RPMI 5 mM glucose + 10% dialyzed FBS, 15.4 µM
[33] = RPMI 5 mM glucose + 10% dialyzed FBS, 46.1 µM

| Compound | cell viability [1] | cell viability [2] | cell viability [3] | cell viability [4] | cell viability [5] | cell viability [6] | cell viability [7] | cell viability [8] | cell viability [9] | cell viability [10] | cell viability [11] | cell viability [12] | cell viability [13] | cell viability [14] | cell viability [15] | cell viability [16] | cell viability [17] | cell viability [18] | cell viability [19] | cell viability [20] | cell viability [21] | cell viability [22] | cell viability [23] | cell viability [24] | cell viability [25] | cell viability [26] | cell viability [27] | cell viability [28] | cell viability [29] | cell viability [30] | cell viability [31] | cell viability [32] | cell viability [33] |
| --- | --- | --- | --- | --- | --- | --- | --- | --- | --- | --- | --- | --- | --- | --- | --- | --- | --- | --- | --- | --- | --- | --- | --- | --- | --- | --- | --- | --- | --- | --- | --- | --- | --- |
| COC(=O)CCC1=C(C)C2=CC3=NC(=CC4=C(C)C(=C([NH]4)C=C\5N=C(C=C1[NH]2)\C(=C5C)CCC(O)=O)C=C)\C6=C\C=C(/[C@@H](C(=O)OC)[C@@]36C)C(=O)OC | 95.4% | 94.3% | 91.5% | 91.9% | 92.6% | 97% | 103% | 80.3% | 78.6% | 38.9% | 14.1% | 86.6% | 89.3% | 91.9% | 97.5% | 116% | 109% | 101% | 102% | 101% | 55.2% | 14.5% | 85.4% | 99% | 87% | 98.4% | 88% | 90.8% | 93.7% | 86.6% | 94.9% | 45.7% | 18.4% |
| COc1ccc(/C=C/C(=O)Nc2ccccc2C(=O)O)cc1OC | 119% | 105% | 120% | 149% | 112% | 117% | 119% | 78.8% | 120% | 73.7% | 86.9% | 108% | 111% | 108% | 109% | 114% | 110% | 105% | 95% | 112% | 92.3% | 87.5% | 104% | 114% | 118% | 94.8% | 104% | 128% | 105% | 110% | 104% | 104% | 83.8% |
| COc1ccc(-n2c(C)c([N+](=O)[O-])c3ccc(O)cc32)cc1 | – | – | – | – | – | – | – | – | – | – | – | 111% | 104% | 113% | 114% | 118% | 126% | 107% | 121% | 98.3% | 119% | 106% | 114% | 120% | 126% | 124% | 123% | 115% | 114% | 102% | 97.5% | 105% | 101% |
| COc1c(N2C[C@@H]3CCCN[C@@H]3C2)c(F)cc2c(=O)c(C(=O)O)cn(C3CC3)c12.Cl.O | 118% | 115% | 103% | 104% | 100% | 87.2% | 82.6% | 101% | 92.4% | 80.5% | 87.5% | 92.2% | 94.1% | 103% | 105% | 113% | 93.8% | 95% | 93.7% | 97.6% | 85.9% | 85.5% | 105% | 98.5% | 108% | 106% | 99.1% | 87.3% | 96% | 98.4% | 87.4% | 86.3% | 85.6% |
| Cc1nnc(C(C)C)n1[C@@H]1C[C@H]2CC[C@@H](C1)N2CC[C@H](NC(=O)C1CCC(F)(F)CC1)c1ccccc1 | 70.8% | 93.7% | 112% | 93.1% | 98.7% | 103% | 107% | 104% | 103% | 84.5% | 25.5% | 83.6% | 82.9% | 95.2% | 91.3% | 84.5% | 99.9% | 92% | 88.5% | 84.3% | 91.3% | 26.3% | 68.3% | 93.2% | 82.6% | 84.8% | 93.2% | 95.5% | 95.1% | 90.3% | 84.4% | 67.1% | 29.9% |
| CC(C)[C@H](C(=O)Nc1ccc(C(=O)NO)cc1)c1ccccc1 | – | – | – | – | – | – | – | – | – | – | – | 113% | 108% | 122% | 138% | 119% | 131% | 125% | 118% | 19% | 8.3% | 8.21% | – | – | – | – | – | – | – | – | – | – | – |
| COCC(=O)NC/C=C/c1ccc2ncnc(Nc3ccc(Oc4ccc(C)nc4)c(C)c3)c2c1 | 84.6% | 89.4% | 109% | 90.8% | 92.1% | 57.3% | 65.8% | 52.9% | 37% | 42.4% | 34.2% | 94.2% | 96.4% | 107% | 95% | 90.6% | 81.3% | 78% | 49.7% | 60.2% | 50.1% | 52.8% | 87.7% | 90.6% | 93.9% | 99.8% | 97.4% | 92.2% | 78.4% | 71.2% | 57.6% | 66.8% | 41% |
| O=C(O)c1cccc(-c2noc(-c3ccccc3F)n2)c1 | 106% | 111% | 100% | 133% | 112% | 121% | 109% | 107% | 110% | 96.8% | 101% | 86.3% | 90.6% | 106% | 103% | 86.2% | 98% | 99.6% | 94.7% | 94.2% | 91.9% | 89.9% | 93.2% | 101% | 101% | 95.2% | 96.6% | 98.9% | 112% | 95.8% | 103% | 87.8% | 81.3% |
| Cc1nnc(C(=O)NC(C)(C)c2nc(C(=O)NCc3ccc(F)cc3)c(O)c(=O)n2C)o1 | 121% | 112% | 119% | 118% | 104% | 103% | 106% | 101% | 95.6% | 97.9% | 96.6% | 87.6% | 99.4% | 96.8% | 92.4% | 96.7% | 99.1% | 100% | 91.2% | 86.5% | 92.2% | 93.3% | 93.7% | 100% | 107% | 93.1% | 109% | 96.6% | 95% | 96.8% | 93.7% | 104% | 94.5% |
| CCN1\C=C(C(O)=O)/C(=O)C2=C1C(=C(N3CCNC(C)C3)C(=C2)F)F (configuration not stated) | 101% | 103% | 114% | 115% | 118% | 121% | 121% | 129% | 128% | 120% | 114% | 114% | 117% | 102% | 115% | 121% | 107% | 122% | 116% | 123% | 116% | 111% | 103% | 112% | 104% | 106% | 118% | 112% | 111% | 122% | 113% | 139% | 98.3% |
